The subject of experiment [1] is human monocyte-derived macrophages. Description: Cholesterol esterification assay: foaming of human monocyte-derived macrophages caused by AcLDL. It counts as cell-based. Conditions: 0.6 nM; 5 μg/mL AcLDL added on Day 7. The procedure: Cholesterol esterification assay was employed as a method for assaying foaming of macrophages [Goldstein J L et al., Methods Enzymol. 1983; 98: 241-260]. Macrophages cause acetylated LDL (AcLDL) to be incorporated into cells via scavenger receptors so as to result in lysosome degradation. Free cholesterol produced in a lysosome is transferred to ACAT and converted into cholesterol ester as a result of ACAT reaction. If [^3H]oleate is added to a medium, [^3H]oleate is incorporated into cells and converted into [^3H]oleoyl-CoA by acyl CoA synthase. ACAT produces cholesterol [^3H]oleate with the use of as substrates, AcLDL-derived free cholesterol and [^3H]oleoyl-CoA obtained as above. The radioactivity of cholesterol [^3H]oleate accumulated in cells can serve as a sensitive indicator for cholesterol ester accumulation (FIG. 7).
LDL (d=1.019-1.063) was purified from human blood plasma by sequential flotation ultracentrifugation [Schumaker VN et al., Methds Enzymol. 1986; 128: 155-170]. […] The volume of the obtained blood plasma fraction from which chylomicron and VLDL had been removed was measured with a volumetric flask. […]
Equivalent volumes of LDL (protein: 30 mg) (15 mL if 2.0 mg protein/mL) and saturated sodium acetate were mixed together. […] At this time, pH was monitored with a pH meter with the dropwise addition of 5 N NaOH thereto such that the pH could be maintained at more than 6.5. […]

The test system of experiment [2] is macrophages of apoE-deficient mice. Briefly: Cholesterol efflux caused by HDL in macrophages collected from treated apoE-deficient mice. It counts as in vivo. The settings on record: 0.6 nmol/kg/h, four weeks; P<0.01. As for the experimental part:
(§1) 13-week-old male apoE-deficient mice (72 mice) were divided into the following 6 groups: (i) physiological salt saline (control); (ii) salusin-α (0.6 nmol/kg/h); (iii) salusin-β (0.6 nmol/kg/h); (iv) salusin-α (0.6 nmol/kg/h)+anti-salusin-α serum (1.4 μg/kg/h); (v) salusin-β (0.6 nmol/kg/h)+anti-salusin-β serum (1.4 μg/kg/h); and (vi) anti-salusin-β serum (1.4 μg/kg/h). The mice were subjected to continuous subcutaneous administration with the use of an osmotic mini-pump for 4 to 8 weeks. The osmotic mini-pump and the solution contained therein were changed every week.
Macrophages collected in the above manner were kept warm for 24 hours in a culture solution prepared as above containing oxidized LDL (10 μg/ml) labeled with [^3H]cholesterol (74 kBq/mL) and washed twice with PBS. Thereafter, the macrophages were kept warm for 16 hours in an RPMI1640 solution containing 0.1% BSA to which HDL (15 μg/mL) had been added. The culture solution was centrifuged at 15,000 rpm for 10 minutes so as to remove the residues therefrom. […] The radioactivity of [^3H]cholesterol in the culture solution and that in the cell extraction solution were assayed: cholesterol efflux (%)=the radioactivity of [^3H]cholesterol in the culture solution/the radioactivity of [^3H]cholesterol in the culture solution+the radioactivity of [^3H]cholesterol in the cell extraction solution×100

Another experiment has as its system ABCA1. Description: ABCA1 expression by macrophages of treated apoE-deficient mice (Western blotting). It counts as in vivo. The settings on record: 0.6 nmol/kg/h, four weeks; range given jointly for ABCA1, ABCG1, SR-BI; P<0.05. The procedure:
as §1
(§2) Macrophages were collected as in the experiment in (1), and the protein expression of the gene involved in foaming of macrophages (i.e., scavenger receptors CD36 and SR-A capable of recognizing oxidized LDL, intracellular cholesterol esterification enzyme ACAT1, and ABCA1, ABCG1, and SR-BI, which are involved in cholesterol efflux) was analyzed by Western blotting. For the internal standard of the macrophage function, β-actin expression was also examined. For quantification of the band concentration, Analyzer (ATTO Corporation, Tokyo) was used.
On the technique in general: A western blot detects proteins with antibodies after separation by electrophoresis.

A further experiment relates to ABCG1. Briefly: ABCG1 expression by macrophages of treated apoE-deficient mice (Western blotting). Conditions: 0.6 nmol/kg/h, four weeks; range given jointly for ABCA1, ABCG1, SR-BI; P<0.05. It counts as in vivo. The procedure: as §1, §2
A further experiment deals with SR-BI. Briefly: SR-BI expression by macrophages of treated apoE-deficient mice (Western blotting). The settings on record: 0.6 nmol/kg/h, four weeks; range given jointly for ABCA1, ABCG1, SR-BI; P<0.05. It counts as in vivo. The procedure:
as §1, §2

For the substance “salusin-β: peptide (SEQ ID NO: 3) comprising 20 amino acid residues, generated by processing from preprosalusin (AIFIFIRWLLKLGHHGRAPP; listed as Homo sapiens) [reference compound]”, the “accumulation of cholesterol [3H]oleate caused by AcLDL relative to control cells” value in experiment [1] was 1.6 times.

In the case of “salusin-α: peptide (SEQ ID NO: 1) comprising 28 amino acid residues, generated by processing from preprosalusin (SGALPPAPAAPRPALRAQRAGPAGPGAK; listed as Homo sapiens)”, the “accumulation of cholesterol [3H]oleate caused by AcLDL, percent of loaded control cells” value in experiment [1] stood at 50%. In experiment [2], the “cholesterol efflux caused by HDL relative to control” value is reported as “approximately 2 times”. The “ABCA1 protein expression relative to initial level” value with ABCA1 is reported as 1.5 to 2 times. Further, the “ABCG1 protein expression relative to initial level” value in the experiment on ABCG1 lay within 1.5 to 2 times. In addition, the “SR-BI protein expression relative to initial level” value in the experiment on SR-BI is on record as 1.5 to 2 times.
